Reference: PMC8536682, “NPF activates a specific NPF receptor and regulates food intake in Pacific abalone Haliotis discus hannai” (Scientific Reports, 2021)
No end group written: not given here.

What was measured:
Hdh-NPFR [1] = assay: Western blot of ERK1/2 phosphorylation in Hdh-NPFR-expressing HEK293 cells; type: cell-based, Haliotis discus hannai; details: inhibitor 10^–5 M pre-incubated 1 h, then Hdh-NPF (10^–8, 10^–6 M) 5 min; Fig. 3f
Method: HEK293 cells were seeded into 6-well plates (0.3 × 10^6 cells/well) and transfected with 3 μg of pcDNA3-HA-Hdh-NPFR or pcDNA3 as described for the reporter assays. At 36 h post-transfection, the transfected cells were treated with Hdh-NPF (10^–9–10^–7 M), TPA (10^–7 M), or the same volume of peptide-free medium as a vehicle for 10 min. After washing twice with PBS, the cells were lysed with RIPA buffer [150 mM NaCl, 1% Triton X-100, 0.5% sodium deoxycholate, 0.1% sodium dodecyl sulfate (SDS), 50 mM Tris–Cl, pH 8.0] including protease inhibitor cocktail and PhosSTOP (Roche, Basel, Switzerland) according to the manufacturer’s recommendation. To examine signaling pathways, Hdh-NPFR-transfected cells were pre-incubated with serum-free DMEM for 6 h at 37 °C and exposed to a PKA inhibitor (H89, 10^–5 M; Sigma-Aldrich) or PKC inhibitor (Gӧ6983, 10^–5 M; Sigma-Aldrich) for a further 60 min. After replacing the medium with fresh serum-free DMEM, the cells were exposed to Hdh-NPF peptide (10^–8, 10^–6 M) for 5 min at 37 °C. The cell lysates were separated by 10% SDS–polyacrylamide gel electrophoresis and subsequently transferred to nitrocellulose membranes (Pall, Ann Arbor, MI, USA). […] The reactive bands were monitored using C-Digit 3600 Bolt Scanner (LI-COR, Lincoln, NE, USA).

Hdh-NPFR [2] = assay: Ca2+ mobilization (aequorin luminescence) assay in Hdh-NPFR-transfected CHO-K1 cells; type: cell-based, Haliotis discus hannai; details: Fig. 3g, Fig. S7b
Method: CHO-K1 cells were maintained in DMEM-F12 Nutrient Mixture Ham supplemented with 10% FBS (Welgene) at 37 °C in 5% CO2. Cells grown in a monolayer to 60% confluency in 100 mm dishes (1.5 × 10^6 cells) were transiently transfected with plasmids using FuGENE6 transfection reagent (Promega), according to the manufacturer’s recommendations. In brief, the transfection medium was prepared by combining 600 μl of DMEM-F12 with 2 μg of pcDNA3-HA-Hdh-NPFR plasmid together with 2 μg of a Ca^2+ reporter aequorin plasmid with or without the promiscuous Gα15 expression plasmid (kind gifts from Dr. Young-Joon Kim, Gwangju Institute of Science and Technology, Gwangju, Korea) with 18 μl of FuGENE6 in a 5 ml polystyrene tube and incubated for 25 min at room temperature. The transfection mixture was added to CHO-K1 cells in 10 ml of fresh FBS-free medium and the cells were incubated at 37 °C in 5% CO2 overnight. On the day of the assay, the cells were detached from the culture dish by incubating with 3 ml of 5 mM EDTA in phosphate-buffered saline (PBS, pH 7.2; Thermo Fisher Scientific, Waltham, MA, USA) for 5 min. The cells were washed in 10 ml of phenol red-free DMEM/F-12 with 0.1% bovine serum albumin (BSA) and 1% P/S (DMEM-prf), and collected by brief centrifugation. Probenecid (1.25 mM final concentration, Invitrogen) and coelenterazine (5 μM, Gold Biotech., St. Louis, MO, USA) were added to resuspended CHO-K1 cells in 5 ml of DMEM-prf medium and the cells were gently agitated for 2.5 h using a magnetic stirrer at room temperature shielded from light. The cell suspension was diluted four times with DMEM-prf and incubated for a further 30 min. Just before the Ca^2+ mobilization assay, peptide solutions were prepared in DMEM-prf and 50 μl aliquots were dispensed into 3 or 4 wells/peptide on 96-well microplates. DMEM-prf was used as a negative control. While stirring gently, 50 μl of the cell suspension was injected into a luminescence microplate reader (Berthold Tech.) using an automated injector unit. Luminescence was recorded for 20 s and for a further 10 s after injection of DMEM-prf including 0.2% Triton X-100 to measure the total Ca^2+ response. The average luminescence from multiple replicate wells for a single concentration was calculated and normalized to the largest receptor response after subtraction of background values obtained from negative controls. Dose–response curves and EC50 values were obtained using Sigma Plot v.13 (Systat Software, Inc., San Jose, CA, USA).

[3] = system: pcDNA3-transfected HEK293 cells; assay: CRE-Luc luciferase reporter assay in pcDNA3-transfected HEK293 cells; type: cell-based, human; details: pcDNA3-transfected HEK293 cells (no receptor); Fig. 3d
Method: HEK293 cells were cultured in Dulbecco’s modified Eagle medium (DMEM; Gibco, Loughborough, UK) containing 1% penicillin/streptomycin (P/S; Invitrogen) and 10% fetal bovine serum (FBS; Hyclone, GE Healthcare, Chicago, IL, USA). Sixteen hours before transfection, cultured HEK293 cells were seeded into 24-well plates (5 × 10^4 cells/well). The cells were transfected with a luciferase reporter plasmid of CRE-Luc[68] or SRE-Luc[69] using a polyethyleneimine transfection reagent (Sigma-Aldrich, St. Louis, MO, USA), along with pcDNA3-HA plasmids containing Hdh-NPFR-related receptors, human NPYR1 and NPYR2 (kindly provided by Dr. Annette G. Beck-Sickinger, Leipzig University, Germany), and a pRSV-β-galactosidase expression plasmid as an internal control (100 ng of each plasmid/well) as previously reported. After 3 h of transfection, the culture medium was replaced by new DMEM with 1% P/S and 10% FBS, and the HEK293 cells were further cultured for 30 h and then maintained in DMEM without FBS for 16 h. […] The cells were lysed with a luciferase cell culture lysis buffer (Promega, Madison, WI, USA) and luciferase activities were analyzed using a microplate-luminometer (Berthold Tech., Bad Wildbad, Germany) and normalized by the β-galactosidase values detected by an absorbance microplate reader (Tecan, Mannedorf, Switzerland) at 405 nm.

| Compound | Ca2+ mobilization response (Hdh-NPFR [2]) | also measured |
| --- | --- | --- |
| COc1ccc2c(c1)c(C1=C(c3c[nH]c4ccccc34)C(=O)NC1=O)cn2CCCN(C)C [Gӧ6983] | – | Effect of inhibitor on Hdh-NPFR-mediated activation of ERK1/2 (Hdh-NPFR [1]): abolished |
| QDAMLAPPDRPSEFRSPD-NH2 [Hdh-NPF-N18, truncated Hdh-NPF peptide] | could not induce | – |
| QDAMLAPPDRPSEFRSPDQLRQYLKALNEYYAIVGRPRF-NH2 [Hdh-NPF] | – | EC50 [3]: 596 nM |
| QLRQYLKALNEYYAIVGRPRF-NH2 [Hdh-NPF-C21, truncated Hdh-NPF peptide] | could not induce | – |
| YAIVGRPRF-NH2 [Hdh-NPF-C9, truncated Hdh-NPF peptide] | could not induce | – |
| YPSKPDNPGEDAPAEQLRQYLKALNEYYAIVGRPRF-NH2 [NPY-F, chimeric mixed peptide for Hdh-NPF and human NPY] | could not activate | – |
